The record followed here is US7947657B2, “Method for selective inhibition of human N-myc gene in N-myc expressing tumors through antisense and antigen peptido-nucleic acids (PNA)” (Universita Degli Studi Di Parma, priority 2003, dated 2011).

In data set [1] the test system is GI-LI-N cells. Briefly: flow cytometric cell cycle analysis on GI-LI-N cells. Type of data set: cell-based, human. An excerpt: Moreover, the number of cells in sub-G1 phase with a hypodiploic DNA content (lower number of chromosomes than diploid DNA, i.e. 2n) increases from 3 to 22%.
For orientation: In flow cytometry, cells or beads pass a laser one at a time.

Data set [2] concerns GI-LI-N cells. Kind of data set: microscopic analysis of morphologic changes/differentiation of GI-LI-N cells. Type of data set: cell-based, human. Conditions: 20 μM. The procedure: In order to assess the differentiation of GI-LI-N cells towards neuronal cells, said cell line has been treated with 20 μM antisense PNA, whereby morphologic changes have been detected by means of microscopic analysis.
Microscope assessment has been carried 36 and 48 hours after GI-LI-N cell growth in the presence or absence of 20 μM antisense PNA.

Data set [3] relates to GI-CA-N cells. Kind of data set: cell growth/proliferation test, cell counting and vitality by tryphan blue exclusion. Type of data set: cell-based, human. Conditions: same conditions. The protocol: (§1) In order to show the effectiveness of the peptide nucleic acids selected by the Applicant, the latter has carried out experimental tests by selecting four neuroblastoma cell lines: GI-LI-N, IMR-32 where N-myc gene is amplified and overexpressed; and GI-CA-N, GI-ME-N where N-myc gene is not amplified and is not expressed.
(§2) In threefold tests using plates with 24 wells, 1.0×10^5 cells have been introduced into the first wells with 0.5 ml of RPMI1640 containing 10% of FBS and 2 mM of […].
(§3) Cells have been incubated for 24 hours so as to let them adhere to the base of the wells.
In order to assess the specificity of sense and antisense anti-gene PNAs, GI-ME-N and GI-CA-N (in which N-myc gene is not amplified and is not […] for sense anti-gene PNA).
(§4) Then, in order to assess the effects of the treatments, cells have been collected and counted 24, 48 and 72 hours after treatment.
(§5) Cells counting and vitality has been determined using colorimetric exclusion method (tryphan blue dye).

The subject of data set [4] is GI-CA-N cells. Briefly: cell entry and intracellular localization by fluorescence microscopy of rhodamine-conjugated PNA. Type of data set: cell-based, human. The protocol:
(§6) In order to assess the ability of antisense PNAs and of anti-gene PNAs to get into human neuroblastoma cells and to analyze the subsequent intracellular localization, the Applicant has used four cell lines GI-LI-N and IMR-32, GI-CA-N and GI-ME-N- and has treated them for 30 minutes to 24 hours with 20 μM of antisense or sense PNA conjugated with rhodamine in 5′. Anti-gene PNAs were further conjugated with NLS in 3′.

The test system of data set [5] is GI-LI-N cells. The description is as above. Type of data set: cell-based, human. The protocol: as §6
For data set [6], the system named is GI-LI-N cells. Briefly: cell growth/proliferation test, cell counting and vitality by tryphan blue exclusion. Type of data set: cell-based, human. To be noted: for maximum inhibition effect on cell growth / inhibition effect in proliferation tests: GI-LI-N cells; for maximum inhibition effect on cell growth: 48 hours after treatment. The protocol:
as §1, §2, §3
(§7) Then, in order to assess the optimal concentration for cell growth inhibition, peptide nucleic acid has been added to GI-LI-N cells in concentration of 10, 20, 40 and 60 μM for 5′-UTR antisense PNA, whereas for sense and antisense anti-gene PNAs in concentrations of 1, 2, 5, 10 and 20 μM on GI-LI-N and IMR-32 cells-
as §4, §5

The next data set deals with N-MYC (protein). Briefly: production of N-MYC protein by Western Blotting in GI-LI-N cell line. To be noted: for N-MYC protein level (Western Blotting): 20 μM, GI-LI-N. Type of data set: cell-based, human. Background: A western blot detects proteins with antibodies after separation by electrophoresis.
Data set [7] relates to IMR-32 cells. Kind of data set: cell growth/proliferation test, cell counting and vitality by tryphan blue exclusion. Type of data set: cell-based, human. To be noted: 10 μM. The procedure: as §1, §2, §3, §7, §4, §5
The subject of a further data set is N-MYC protein. Briefly: production of N-MYC protein by Western Blotting in IMR-32 cell line. Type of data set: cell-based, human. To be noted: 10 μM. The protocol: In further tests on sense anti-gene PNA, the production of N-MYC protein was assessed by using Western Blotting in IMR-32 cell line after 3 hours of treatment with 10 μM sense anti-gene PNA. A reduction of 50% of protein level has been detected after 3 hours of treatment with sense anti-gene PNA.

The test system of a further data set is HeLa cells. Kind of data set: cell growth/proliferation test in cervical carcinoma cells. Type of data set: cell-based. To be noted: 10 μM. The protocol: (§8) The treatment with 10 μM sense anti-gene PNA has also been carried out in HT29 cells (deriving from colon carcinoma) and in HeLa cells (deriving from cervical carcinoma) expressing N-myc gene.
Data set [8] concerns IMR-32 cells. Kind of data set: cytofluorimetric cell cycle analysis in IMR-32 cells. Type of data set: cell-based, human. To be noted: 10 μM; for cells in G2/M / cells in Go/G1 / cells in S phase: IMR-32. The protocol:
A cytofluorimetric analysis in IMR-32 cells 24 and 48 hours after the treatment with sense anti-gene PNA in a concentration of 10 μM, induced a cell accumulation in Go/G1 (from 39% to 53% after 24 hours; from 31% to 53% after 48 hours) and decrease in G2/M (from 17% to 6% after 24 hours; from 25% to 9% after 48 hours) and S phase (from 45 to 41% after 24 hours; from 44% to 39% after 48 hours).

The subject of another data set is HT29 cells. Kind of data set: cell growth/proliferation test in colon carcinoma cells. Type of data set: cell-based. To be noted: 10 μM. The protocol: as §8
A further data set deals with N-myc transcript. Kind of data set: production of N-myc transcript by PCR of cDNA from GI-LI-N cells. To be noted: 10 μM, 30 PCR cycles, easily detected in untreated cells. Type of data set: cell-based, human. The procedure: The production of N-myc transcript was assessed before and after […] treatment with 10 μM sense anti-gene PNA by amplification in PCR of cDNA obtained from 250 ng of mRNA of GI-LI-N cells. The following primers have been used: sense SEQ ID NO: 5 (ExonE 2, by 2366); antisense SEQ ID NO: 6(Exon 3, by 5095) (Genbank M13241). PCR has been carried out with 30 reaction cycles.

The next data set concerns GI-ME-N cells. Kind of data set: cell growth/proliferation test, cell counting and vitality by tryphan blue exclusion. Type of data set: cell-based, human. Conditions: 10 μM; GI-ME-N cells (N-myc not amplified, not expressed); same conditions. The procedure:
as §1, §2, §3
In order to assess the specificity of sense and antisense anti-gene PNAs, GI-ME-N and GI-CA-N (in which N-myc gene is not amplified and is not expressed) have been treated with sense and antisense anti-gene PNA in a concentration of […] (optimal concentration selected for sense anti-gene PNA).
as §4, §5

The mark [9] stands for this setting: same test conditions used for sense anti-gene PNA.
The mark [10] stands for this setting: 10 μM, cell line not restated (GI-LI-N).

“Also recorded” adds a separate entry of the source.

For the substance “antisense PNA: antisense peptide nucleic acid (bp 135-150, SEQ ID NO: 1) complementary to one sequence in 5′-UTR region of N-myc gene (antisense TCCACCCAGCGCGTCC; all peptide nucleic acid (PNA))”, the “cells in sub-G1 phase with hypodiploic DNA content” value with GI-LI-N cells [1] (20 μM, GI-LI-N, 36 hours after treatment, from 3 untreated) was 22%. Besides, the “cells in G2” value with GI-LI-N cells [1] (20 μM, GI-LI-N, 36 hours after treatment, from 13 untreated) is 6%. Moreover, the “cells in G0/G1” value with GI-LI-N cells [1] (20 μM, GI-LI-N, 36 hours after treatment, from 34% untreated) is listed as 57%. For the same substance, the “cells in S phase” value in the data set on GI-LI-N cells [1] (20 μM, GI-LI-N, 36 hours after treatment, from 53% untreated) was determined as 37%. Moreover, the “morphologic changes (microscope)” value is listed as “less uniform distribution than control cells” in the data set with GI-LI-N cells [2] (after 36 hours) and “tend to form small cell aggregates” in the data set on GI-LI-N cells [2] (after 48 hours). Besides, in the data set on GI-CA-N cells [3] (20 μM, GI-CA-N cells (N-myc not amplified)), the “inhibition effect on cell growth” value is reported as “do not show any inhibition effect”. Further, the “time after treatment at which intracytoplasmatic fluorescence can already be measured” value in the data set on GI-CA-N cells [4] (20 μM PNA conjugated with rhodamine in 5′) is no more than 30 min; with GI-LI-N cells [5] (20 μM PNA conjugated with rhodamine in 5′, GI-LI-N) it was no more than 30 min. Moreover, the “time to maximum fluorescence intensity” value in the data set on GI-CA-N cells [4] (20 μM rhodamine-conjugated PNA, level then constant for 24 hours) came to 6 h; in the data set on GI-LI-N cells [5] (20 μM rhodamine-conjugated PNA, GI-LI-N, level then constant for 24 hours) it was 6 h. In addition, the “intracellular localization of fluorescence” value in the data set on GI-LI-N cells [5] (20 μM rhodamine-conjugated PNA, cell lines of b80) is recorded as “High intracytoplasmatic values”. Moreover, the “maximum inhibition effect on cell growth” value in the data set on GI-LI-N cells [6] (20 μM) is on record as 70%. The “N-MYC protein level (Western Blotting)” value with N-MYC (protein) (after 24 hours) was “evident reduction”; in the data set on N-MYC (protein) (after 72 hours), “reduction decreases”.
For “antisense anti-gene PNA: antisense anti-gene PNA (SEQ ID NO: 4) complementary to a sequence of exon 2 N-myc gene, NLS-conjugated (antisense AGATCATGCCCGGCAT; all peptide nucleic acid (PNA); SV40 nuclear localization signal peptide conjugated at 3' end, further chemistry not fully specified)”, the “inhibition effect in proliferation tests” value with IMR-32 cells [7] (IMR-32 cells) and with GI-LI-N cells [6] (10 μM) was “have not shown any inhibition effect; also recorded: do not show any inhibition effect” each time.
On to “mutated anti-gene PNA: mutated PNA containing the substitution of three bases (SEQ ID NO: 7), specificity control for sense anti-gene PNA (GTGCCGAGCATGGTCT; all peptide nucleic acid (PNA))”, for which, in the data set with N-MYC protein (setting [9]), the “inhibition effect in the amount of N-MYC protein” value was “No inhibition effect”. Further, the “inhibition effect in proliferation tests” value with HeLa cells and with HT29 cells was “have not shown any inhibition effect” each time. Also, in the data set on IMR-32 cells [8] (setting [9]), the “inhibition effect in cell cycle” value was “No inhibition effect”. In addition, the “inhibition effect in cell vitality” value in the data set on IMR-32 cells [7] (setting [9]) is reported as “No inhibition effect”.
Turning to “mutated antisense PNA: mutated PNA containing the substitution of three bases (SEQ ID NO: 2), specificity control for antisense PNA (CCCACTCAGCGCGCCC; all peptide nucleic acid (PNA))”, the “inhibition effect in cell cycle” value in the data set with GI-LI-N cells [1] (setting [10]) was “no inhibition effect”. Moreover, the “inhibition effect in cell vitality” value in the data set on GI-LI-N cells [6] (setting [10]) is recorded as “no inhibition effect”. The “inhibition effect in proliferation tests” value in the data set on GI-LI-N cells [6] (20 μM) was “have not shown any inhibition effect”. For the same substance, in the data set on N-MYC (protein) (setting [10]), the “inhibition effect in the amount of N-MYC protein” value is listed as “no inhibition effect”.
For the substance “sense anti-gene PNA: sense anti-gene PNA (SEQ ID NO: 3) complementary to a sequence of exon 2 N-myc gene, NLS-conjugated (ATGCCGGGCATGATCT; all peptide nucleic acid (PNA); SV40 nuclear localization signal peptide conjugated at 3' end, further chemistry not fully specified)”, the “inhibition effect on cell growth” value was “do not show any inhibition effect” in the data set on GI-CA-N cells [3] (10 μM, GI-CA-N cells (N-myc not amplified, not expressed)) and “do not show any inhibition effect” in the data set on GI-ME-N cells. Further, the “reduction of N-MYC protein level (Western Blotting)” value with N-MYC protein (IMR-32, after 3 hours of treatment) is 50%. The “maximum inhibition effect on cell growth” value is reported as 70% in the data set on HeLa cells (24 hours after treatment); 80% with IMR-32 cells [7] (IMR-32 cells, 48 hours after treatment); 90% in the data set with GI-LI-N cells [6] (10 μM); 70% in the data set with HT29 cells (48 hours after treatment). For the same substance, in the data set with N-myc transcript, the “PCR product of N-myc transcript” value is reported as “cannot be detected”. The “cells in G2/M” value in the data set with IMR-32 cells [8] (after 24 hours, from 17% untreated) is listed as 6%; in the data set on IMR-32 cells [8] (after 48 hours, from 25% untreated), 9%. Also, the “cells in Go/G1” value in the data set on IMR-32 cells [8] (after 24 hours, from 39% untreated) amounted to 53%; with IMR-32 cells [8] (after 48 hours, from 31% untreated), 53%. Moreover, the “cells in S phase” value in the data set on IMR-32 cells [8] (after 24 hours, from 45 untreated) was 41%; with IMR-32 cells [8] (after 48 hours, from 44% untreated) it was 39%.
